PubChem BioAssay (NCI)
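48-hour exposure; five concentrations; linearly interpolated endpoints. At the GI50, growth is halved. At the TGI there is no net growth.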

What was measured:
Assay in all cases: NCI anticancer screen, dose series, 48 h; in the data active = GI50 below about 0.43 µM; inactive = the rest
[1] = tested on: UACC-62 melanoma
[2] = tested on: NCI-H522 lung
[3] = tested on: MOLT-4 leukemia
[4] = tested on: COLO 205 colon
[5] = tested on: SF-539 CNS
[6] = tested on: DU-145 prostate
[7] = tested on: UO-31 renal
[8] = tested on: RPMI-8226 leukemia
[9] = tested on: SK-MEL-5 melanoma
[10] = tested on: KM12 colon
[11] = tested on: K-562 leukemia
[12] = tested on: NCI-H226 lung
[13] = tested on: SR leukemia
[14] = tested on: SNB-19 CNS
[15] = tested on: OVCAR-8 ovarian
[16] = tested on: HOP-92 NSCLC
[17] = tested on: ACHN renal
[18] = tested on: M14 melanoma
[19] = tested on: T-47D breast
[20] = tested on: SK-MEL-28 melanoma
[21] = tested on: MCF7 breast
[22] = tested on: MDA-MB-231 breast
[23] = tested on: NCI/ADR-RES ovarian
[24] = tested on: NCI-H460 lung
[25] = tested on: SK-OV-3 ovarian
[26] = tested on: EKVX NSCLC
[27] = tested on: SF-268 CNS
[28] = tested on: U251 CNS
[29] = tested on: HL-60(TB) leukemia
[30] = tested on: SF-295 CNS
[31] = tested on: CCRF-CEM leukemia
[32] = tested on: A498 renal
[33] = tested on: MDA-MB-435
[34] = tested on: HOP-62 NSCLC
[35] = tested on: HS 578T breast
[36] = tested on: HT29 colon
[37] = tested on: LOX IMVI melanoma
[38] = tested on: HCC-2998 colon
[39] = tested on: PC-3 prostate
[40] = tested on: TK-10 renal
[41] = tested on: UACC-257 melanoma
[42] = tested on: MDA-MB-468 breast
[43] = tested on: NCI-H23 lung
[44] = tested on: RXF 393 renal
[45] = tested on: OVCAR-3 ovarian
[46] = tested on: SK-MEL-2 melanoma
[47] = tested on: HCT-116 colon
[48] = tested on: IGROV1 ovarian
[49] = tested on: A549 NSCLC
[50] = tested on: SN12C renal
[51] = tested on: OVCAR-5 ovarian
[52] = tested on: MALME-3M melanoma
[53] = tested on: HCT-15 colon
[54] = tested on: OVCAR-4 ovarian
[55] = tested on: SNB-75 CNS
[56] = tested on: 786-0 renal
[57] = tested on: SW-620 colon
[58] = tested on: BT-549 breast
[59] = tested on: CAKI-1 renal

COc1cc2c(c(OC)c1OC)C(=O)CC(c1cccc(NC(=O)c3cc([N+](=O)[O-])ccc3Cl)c1)O2 (stereo unspecified)
29.5 µM: TGI [23]
45.3 µM: TGI [1]
17.5 µM: TGI [12]
24.8 µM: TGI [33]
3.56 µM: TGI [37]
25 µM: TGI [28]
6.08 µM: TGI [53]
7.84 µM: TGI [31]
14.6 µM: TGI [50]
73.3 µM: TGI [9]
58.7 µM: TGI [19]
27.8 µM: TGI [17]
26.3 µM: TGI [55]
17.8 µM: TGI [16]
19.1 µM: TGI [22]
5.92 µM: TGI [42]
15.5 µM: TGI [2]
26.9 µM: TGI [43]
16.8 µM: TGI [58]
5.61 µM: TGI [57]
> 100 µM: TGI [3] | TGI [6] | TGI [7] | TGI [11] | TGI [13] | TGI [14] | TGI [20] | TGI [21] | TGI [25] | TGI [26] | TGI [27] | TGI [30] | TGI [32] | TGI [34] | TGI [35] | TGI [36] | TGI [38] | TGI [39] | TGI [40] | TGI [41] | TGI [45] | TGI [48] | TGI [49] | TGI [51] | TGI [52] | TGI [54] | TGI [56] | TGI [59]
21 µM: TGI [4]
82.9 µM: TGI [24]
15.9 µM: TGI [18]
57.7 µM: TGI [29]
20.5 µM: TGI [15]
inactive: GI50 [1] 4.17 µM | GI50 [2] 3.04 µM | GI50 [3] 2.56 µM | GI50 [4] 5.49 µM | GI50 [5] 3.54 µM | GI50 [6] 5.48 µM | GI50 [7] 4.78 µM | GI50 [8] 3.14 µM | GI50 [9] 8.99 µM | GI50 [10] 3.86 µM | GI50 [11] 4.42 µM | GI50 [12] 3.37 µM | GI50 [13] 2.39 µM | GI50 [14] 18.6 µM | GI50 [15] 3.47 µM | GI50 [16] 2.73 µM | GI50 [17] 5 µM | GI50 [18] 3.17 µM | GI50 [19] 3.74 µM | GI50 [20] 15.5 µM | GI50 [21] 2.56 µM | GI50 [22] 3.96 µM | GI50 [23] 4.99 µM | GI50 [24] 8.14 µM | GI50 [25] 38.8 µM | GI50 [26] 21.9 µM | GI50 [27] 6.92 µM | GI50 [28] 4.32 µM | GI50 [29] 4.91 µM | GI50 [30] 7.61 µM | GI50 [31] 2.44 µM | GI50 [32] 45 µM | GI50 [33] 3.51 µM | GI50 [34] 60.9 µM | GI50 [35] 3.98 µM | GI50 [36] 7.21 µM | GI50 [37] 1.59 µM | GI50 [38] 13.7 µM | GI50 [39] 7.27 µM | GI50 [40] 33.6 µM | GI50 [41] 6.27 µM | GI50 [42] 2.3 µM | GI50 [43] 5.34 µM | GI50 [44] 4.02 µM | GI50 [45] 5.12 µM | GI50 [46] 10.8 µM | GI50 [47] 1.69 µM | GI50 [48] 11.3 µM | GI50 [49] 6.66 µM | GI50 [50] 2.74 µM | GI50 [51] 22.4 µM | GI50 [52] 18.2 µM | GI50 [53] 2.04 µM | GI50 [54] 26.6 µM | GI50 [55] 2.53 µM | GI50 [56] 17.5 µM | GI50 [57] 2.14 µM | GI50 [58] 2.27 µM | GI50 [59] 3.22 µM
3.64 µM: TGI [47]
40.1 µM: TGI [46]
34.4 µM: TGI [44]
18.9 µM: TGI [5]
38.1 µM: TGI [8]
33.8 µM: TGI [10]

COc1cc(/C=C/C(=O)c2cnn(-c3cc(=O)[nH]c4ccc(Cl)cc34)c2C)cc(OC)c1OC
64.4 µM: TGI [41]
5.01 µM: TGI [53]
9.98 µM: TGI [58]
25.8 µM: TGI [34]
3.68 µM: TGI [17]
8.21 µM: TGI [38]
8.12 µM: TGI [33]
13.3 µM: TGI [20]
inactive: GI50 [1] 3.36 µM | GI50 [2] 2.66 µM | GI50 [4] 3.53 µM | GI50 [5] 2.08 µM | GI50 [6] 3.3 µM | GI50 [7] 3.26 µM | GI50 [8] 2.42 µM | GI50 [9] 3.22 µM | GI50 [10] 3.37 µM | GI50 [11] 2.68 µM | GI50 [12] 2.89 µM | GI50 [13] 2.02 µM | GI50 [14] 3.36 µM | GI50 [15] 2.06 µM | GI50 [16] 7.31 µM | GI50 [17] 1.76 µM | GI50 [18] 3.2 µM | GI50 [19] 3.08 µM | GI50 [20] 3.36 µM | GI50 [21] 2.48 µM | GI50 [22] 3.3 µM | GI50 [24] 1.88 µM | GI50 [25] 4.68 µM | GI50 [26] 2.96 µM | GI50 [27] 3.42 µM | GI50 [28] 2.83 µM | GI50 [30] 3.16 µM | GI50 [31] 2.42 µM | GI50 [32] 34.2 µM | GI50 [33] 2.6 µM | GI50 [34] 3.57 µM | GI50 [35] 3.31 µM | GI50 [36] 2.5 µM | GI50 [38] 2.78 µM | GI50 [39] 6.28 µM | GI50 [40] 3.26 µM | GI50 [41] 7.19 µM | GI50 [42] 1.8 µM | GI50 [43] 2.21 µM | GI50 [44] 2.08 µM | GI50 [45] 3.06 µM | GI50 [46] 2.98 µM | GI50 [47] 3.58 µM | GI50 [48] 2.54 µM | GI50 [49] 3.09 µM | GI50 [50] 2.64 µM | GI50 [51] 3.32 µM | GI50 [52] 5.1 µM | GI50 [53] 1.93 µM | GI50 [54] 3.58 µM | GI50 [56] 4.09 µM | GI50 [57] 2.97 µM | GI50 [58] 2.76 µM | GI50 [59] 4.17 µM
9.24 µM: TGI [50]
4.41 µM: TGI [42]
14.4 µM: TGI [14]
11.8 µM: TGI [46]
4.95 µM: TGI [15] | TGI [44]
9.13 µM: TGI [12]
14.1 µM: TGI [26]
7.18 µM: TGI [48]
8.38 µM: TGI [2]
22.5 µM: TGI [59]
14 µM: TGI [4]
6.58 µM: TGI [36]
12 µM: TGI [9]
14.9 µM: TGI [22]
11.5 µM: TGI [30] | TGI [57]
13.4 µM: TGI [51]
9.9 µM: TGI [45]
27.2 µM: TGI [52]
4.32 µM: TGI [24]
19.8 µM: TGI [18]
10.2 µM: TGI [21]
21.1 µM: TGI [56]
> 100 µM: TGI [6] | TGI [8] | TGI [11] | TGI [13] | TGI [19] | TGI [25] | TGI [27] | TGI [28] | TGI [31] | TGI [35] | TGI [39] | TGI [40] | TGI [49] | TGI [54]
87.4 µM: TGI [32]
17.5 µM: TGI [47]
5.9 µM: TGI [43]
14.5 µM: TGI [7]
15 µM: TGI [1] | TGI [10]
4.62 µM: TGI [5]
99.8 µM: TGI [16]
